# Measurements published in US9120770B2, “Substituted pyridine and pyrazine compounds as PDE4 inhibitors” (DART NEUROSCIENCE (CAYMAN) LTD., priority 2013, dated 2015).
# Biological target: PDE4D3 (Homo sapiens, UniProt Q08499)
# Sequence (Q08499 1-673 isoform Q08499-2): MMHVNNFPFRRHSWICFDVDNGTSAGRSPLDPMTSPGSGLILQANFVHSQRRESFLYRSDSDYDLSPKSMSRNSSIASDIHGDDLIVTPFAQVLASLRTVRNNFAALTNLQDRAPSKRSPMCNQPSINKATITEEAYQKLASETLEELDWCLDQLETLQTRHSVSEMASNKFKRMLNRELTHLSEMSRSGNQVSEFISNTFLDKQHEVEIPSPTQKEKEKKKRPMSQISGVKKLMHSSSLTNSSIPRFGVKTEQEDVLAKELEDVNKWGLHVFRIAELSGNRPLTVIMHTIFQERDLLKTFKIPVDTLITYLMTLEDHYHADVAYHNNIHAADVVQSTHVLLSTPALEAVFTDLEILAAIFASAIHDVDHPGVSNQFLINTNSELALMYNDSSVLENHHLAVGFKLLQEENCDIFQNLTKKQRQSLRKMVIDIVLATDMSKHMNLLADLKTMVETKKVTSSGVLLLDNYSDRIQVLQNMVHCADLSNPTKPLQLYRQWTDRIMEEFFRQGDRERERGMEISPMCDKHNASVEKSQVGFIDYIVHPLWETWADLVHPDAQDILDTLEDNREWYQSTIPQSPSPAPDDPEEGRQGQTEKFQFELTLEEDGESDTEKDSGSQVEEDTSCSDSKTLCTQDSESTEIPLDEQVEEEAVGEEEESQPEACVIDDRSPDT
row,Compound,EC50
1,"CCOc1ncc(Cc2cnc(C#N)nc2)nc1-c1cccc(OC(F)F)c1 [Example 1, 5-({6-[3-(Difluoromethoxy)phenyl]-5-ethoxypyrazin-2-yl}methyl)pyrimidine-2-carbonitrile]",< 100 nM
2,"COc1ncc(Cc2cnc(Cl)nc2)cc1-c1cccc(Cl)c1 [Example 2, 2-Chloro-5-{[5-(3-chlorophenyl)-6-methoxypyridin-3-yl]methyl}pyrimidine]",100 to 1000 nM
3,"COc1ncc(Cc2cnc(NCCN(C)C)nc2)cc1-c1cccc(Cl)c1 [Example 3, {2-[(5-{[5-(3-Chlorophenyl)-6-methoxypyridin-3-yl]methyl}pyrimidin-2-yl)amino]ethyl}dimethylamine]",1000 to 10000 nM
4,"COc1cccc(-c2cc(Cn3cncn3)cnc2OC)n1 [Example 4, 2-Methoxy-3-(6-methoxypyridin-2-yl)-5-(1H-1,2,4-triazol-1-ylmethyl)pyridine]",> 10000 nM
5,"COc1ncc(Cn2cncn2)cc1-c1cccc(C)c1 [Example 5, 2-Methoxy-3-(3-methylphenyl)-5-(1H-1,2,4-triazol-1-ylmethyl)pyridine]",100 to 1000 nM
6,"COc1ncc(Cn2cncn2)cc1-c1cncc(C)c1 [Example 6, 2-Methoxy-3-(5-methylpyridin-3-yl)-5-(1H-1,2,4-triazol-1-ylmethyl)pyridine]",> 10000 nM
7,"COc1ncc(Cn2cncn2)cc1-c1ccnc(C)c1 [Example 7, 2-Methoxy-3-(2-methylpyridin-4-yl)-5-(1H-1,2,4-triazol-1-ylmethyl)pyridine]",100 to 1000 nM
8,"COc1ncc(Cn2cncn2)cc1-c1cccc(CO)c1 [Example 8, {3-[2-Methoxy-5-(1H-1,2,4-triazol-1-ylmethyl)pyridin-3-yl]phenyl}methanol]",1000 to 10000 nM
9,"COc1ncc(Cn2cncn2)cc1-c1cccc(S(C)(=O)=O)c1 [Example 9, 3-(3-Methanesulfonylphenyl)-2-methoxy-5-(1H-1,2,4-triazol-1-ylmethyl)pyridine]",> 10000 nM
10,"COc1ncc(Cn2cncn2)cc1-c1cc(C)ccn1 [Example 10, 2-Methoxy-3-(4-methylpyridin-2-yl)-5-(1H-1,2,4-triazol-1-ylmethyl)pyridine]",> 10000 nM
11,"COc1ncc(Cn2cncn2)cc1-c1cccc(C)n1 [Example 11, 2-Methoxy-3-(6-methylpyridin-2-yl)-5-(1H-1,2,4-triazol-1-ylmethyl)pyridine]",> 10000 nM
12,"Cc1cccc(-c2cc(Cn3cncn3)cnc2OC(F)F)c1 [Example 12, 2-(Difluoromethoxy)-3-(3-methylphenyl)-5-(1H-1,2,4-triazol-1-ylmethyl)pyridine]",100 to 1000 nM
13,"CCOc1ncc(Cc2cnc(C(N)=O)nc2)nc1-c1cccc(OC(F)F)c1 [Example 13, 5-({6-[3-(Difluoromethoxy)phenyl]-5-ethoxypyrazin-2-yl}methyl)pyrimidine-2-carboxamide]",< 100 nM
14,"COc1ncc(C(O)c2ccc(F)cc2)cc1-c1cccc(Cl)c1 (stereo not shown) [Example 14, [5-(3-Chlorophenyl)-6-methoxypyridin-3-yl](4-fluorophenyl)methanol]",100 to 1000 nM
15,"COc1ncc(C(C)(O)c2ccc(F)cc2)cc1-c1cccc(Cl)c1 (stereo not shown) [Example 15, 1-[5-(3-Chlorophenyl)-6-methoxypyridin-3-yl]-1-(4-fluorophenyl)ethan-1-ol]",1000 to 10000 nM
16,"COc1ncc(C(O)c2ccc(F)cn2)cc1-c1cccc(Cl)c1 (stereo not shown) [Example 16, [5-(3-Chlorophenyl)-6-methoxypyridin-3-yl](5-fluoropyridin-2-yl)methanol]",1000 to 10000 nM
17,"CNC(c1ccc(F)cc1)c1cnc(OC)c(-c2cccc(Cl)c2)c1 (stereo not shown) [Example 17, {[5-(3-Chlorophenyl)-6-methoxypyridin-3-yl](4-fluorophenyl)methyl}(methyl)amine]",1000 to 10000 nM
18,"COc1ncc(C(N)c2ccc(F)cc2)cc1-c1cccc(Cl)c1 (stereo not shown) [Example 18, [5-(3-Chlorophenyl)-6-methoxypyridin-3-yl](4-fluorophenyl)methanamine]",1000 to 10000 nM
19,"COc1ncc(C(c2ccc(F)cc2)N(C)C)cc1-c1cccc(Cl)c1 (stereo not shown) [Example 19, {[5-(3-Chlorophenyl)-6-methoxypyridin-3-yl](4-fluorophenyl)methyl}dimethylamine]",1000 to 10000 nM
20,"COc1ncc(C(F)c2ccc(F)cc2)cc1-c1cccc(Cl)c1 (stereo not shown) [Example 20, 3-(3-Chlorophenyl)-5-[fluoro(4-fluorophenyl)methyl]-2-methoxypyridine]",100 to 1000 nM
21,"COc1ncc(Cc2ccc(C(=O)O)cc2)cc1-c1cccc(Cl)c1 [Example 21, 4-{[5-(3-Chlorophenyl)-6-methoxypyridin-3-yl]methyl}benzoic acid]",100 to 1000 nM
22,"COc1ncc(Cc2cnc(C#N)nc2)nc1-c1cccc(Cl)c1 [Example 22, 5-{[6-(3-Chlorophenyl)-5-methoxypyrazin-2-yl]methyl}pyrimidine-2-carbonitrile]",> 10000 nM
23,"COc1ncc(Cc2cnc(C(=O)O)nc2)cc1-c1cccc(Cl)c1 [Example 23, 5-{[5-(3-Chlorophenyl)-6-methoxypyridin-3-yl]methyl}pyrimidine-2-carboxylic acid]",1000 to 10000 nM

row,Compound,EC50
1,"COc1ncc(Cc2cnc(C(N)=O)nc2)cc1-c1cccc(Cl)c1 [Example 24, 5-{[5-(3-Chlorophenyl)-6-methoxypyridin-3-yl]methyl}pyrimidine-2-carboxamide]",100 to 1000 nM
2,"COc1ncc(Cc2cnc(N)nc2)cc1-c1cccc(Cl)c1 [Example 25, 5-{[5-(3-Chlorophenyl)-6-methoxypyridin-3-yl]methyl}pyrimidin-2-amine]",< 100 nM
3,"COc1ncc(Cc2ccc(NC(N)=O)cc2)cc1-c1cccc(Cl)c1 [Example 26, (4-{[5-(3-Chlorophenyl)-6-methoxypyridin-3-yl]methyl}phenyl)urea]",100 to 1000 nM
4,"COc1ncc(Cc2ccc(C(N)=O)cc2)cc1-c1cccc(Cl)c1 [Example 27, 4-{[5-(3-Chlorophenyl)-6-methoxypyridin-3-yl]methyl}benzamide]",< 100 nM
5,"FC(F)Oc1ncc(Cc2cn[nH]c2)cc1-c1cccc(Cl)c1 [Example 28, 5-((1H-Pyrazol-4-yl)methyl)-3-(3-chlorophenyl)-2-(difluoromethoxy)pyridine]",< 100 nM
6,"COc1cccc(-c2cc(Cc3cnc(N)nc3)cnc2OC(F)F)c1 [Example 29, 5-{[6-(Difluoromethoxy)-5-(3-methoxyphenyl)pyridin-3-yl]methyl}pyrimidin-2-amine]",< 100 nM
7,"COc1ncc(Cc2ccc(N)nc2)cc1-c1cccc(Cl)c1 [Example 30, 5-{[5-(3-Chlorophenyl)-6-methoxypyridin-3-yl]methyl}pyridin-2-amine]",< 100 nM
8,"COc1ncc(Cc2ccc(NC(=O)NC3COC3)cc2)cc1-c1cccc(Cl)c1 [Example 31, 1-(4-{[5-(3-Chlorophenyl)-6-methoxypyridin-3-yl]methyl}phenyl)-3-(oxetan-3-yl)urea]",1000 to 10000 nM
9,"COc1ccc(Cc2cnc(OC)c(-c3cccc(Cl)c3)c2)cn1 [Example 32, 3-(3-Chlorophenyl)-2-methoxy-5-[(6-methoxypyridin-3-yl)methyl]pyridine]",< 100 nM
10,"Nc1ccc(Cc2cnc(OC(F)F)c(-c3cccc(Cl)c3)c2)cn1 [Example 33, 5-{[5-(3-Chlorophenyl)-6-(difluoromethoxy)pyridin-3-yl]methyl}pyridin-2-amine]",< 100 nM
11,"COc1ncc(Cc2ccc(N(C)C)nc2)cc1-c1cccc(Cl)c1 [Example 34, 5-{[5-(3-Chlorophenyl)-6-methoxypyridin-3-yl]methyl}-N,N-dimethylpyridin-2-amine]",100 to 1000 nM
12,"N#Cc1ncc(Cc2cnc(OC(F)F)c(-c3cccc(Cl)c3)c2)cn1 [Example 35, 5-{[5-(3-Chlorophenyl)-6-(difluoromethoxy)pyridin-3-yl]methyl}pyrimidine-2-carbonitrile]",1000 to 10000 nM
13,"Nc1ncc(Cc2cnc(OC(F)F)c(-c3cccc(Cl)c3)c2)s1 [Example 36, 5-{[5-(3-Chlorophenyl)-6-(difluoromethoxy)pyridin-3-yl]methyl}-1,3-thiazol-2-amine]",< 100 nM
14,"COc1ncc(Cc2ccccc2CO)cc1-c1cccc(Cl)c1 [Example 37, (2-{[5-(3-Chlorophenyl)-6-methoxypyridin-3-yl]methyl}phenyl)methanol]",100 to 1000 nM
15,"COc1ncc(Cc2cnc(N)nc2)cc1-c1cccc(F)c1 [Example 38, 5-{[5-(3-Fluorophenyl)-6-methoxypyridin-3-yl]methyl}pyrimidin-2-amine]",< 100 nM
16,"COc1ncc(Cc2cnc(C#N)nc2)cc1-c1cccc(F)c1 [Example 39, 5-{[5-(3-Fluorophenyl)-6-methoxypyridin-3-yl]methyl}pyrimidine-2-carbonitrile]",1000 to 10000 nM
17,"CCOc1ncc(Cc2cnc(N)nc2)cc1-c1cccc(Cl)c1 [Example 40, 5-{[5-(3-Chlorophenyl)-6-ethoxypyridin-3-yl]methyl}pyrimidin-2-amine]",< 100 nM
18,"CC(C)Oc1ncc(Cc2cnc(N)nc2)cc1-c1cccc(Cl)c1 [Example 41, 5-{[5-(3-Chlorophenyl)-6-(propan-2-yloxy)pyridin-3-yl]methyl}pyrimidin-2-amine]",100 to 1000 nM
19,"CC(C)Oc1cccc(-c2cc(Cc3cnc(N)nc3)cnc2OC(F)F)c1 [Example 42, 5-{[6-(Difluoromethoxy)-5-[3-(propan-2-yloxy)phenyl]pyridin-3-yl]methyl}pyrimidin-2-amine]",1000 to 10000 nM
20,"Nc1ncc(Cc2cnc(OC(F)F)c(-c3cccc(OC4COC4)c3)c2)cn1 [Example 43, 5-{[6-(Difluoromethoxy)-5-[3-(oxetan-3-yloxy)phenyl]pyridin-3-yl]methyl}pyrimidin-2-amine]",100 to 1000 nM
21,"COc1ncc(Cc2cnc(NC(C)=O)nc2)cc1-c1cccc(Cl)c1 [Example 44, N-(5-[{5-(3-Chlorophenyl)-6-methoxypyridin-3-yl]methyl}pyrimidin-2-yl)acetamide]",100 to 1000 nM
22,"CS(=O)(=O)c1ccc(Cc2cnc(OC(F)F)c(-c3cccc(Cl)c3)c2)cc1 [Example 45, 3-(3-Chlorophenyl)-2-(difluoromethoxy)-5-[(4-methanesulfonylphenyl)methyl]pyridine]",100 to 1000 nM
23,"COc1cc(-c2cc(Cc3cnc(N)nc3)cnc2OC(F)F)ccn1 [Example 46, 5-{[6-(Difluoromethoxy)-5-(2-methoxypyridin-4-yl)pyridin-3-yl]methyl}pyrimidin-2-amine]",< 100 nM
